# The supplement of paper PMC10790783
# Tested on: MRC5-hT fibroblasts expressing HCMV UL38 (glucose-free medium)
# Test: rescue of cell number (AUC of dose-response) relative to untreated glucose-free control; higher = stronger protection from glucose-starvation-induced cell death
# Settings: glucose: 0 (glucose-free DMEM); 96 h; dose range 0.001-20, 10-point curve µM
# Method: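 MRC5-hT fibroblasts stably expressing HCMV UL38 were seeded in 384-well plates, serum-starved for 24 h, switched to glucose-free DMEM, and pin-transferred with a metabolism-focused compound library as 10-point dose curves (1 nM to 20 µM; n=2). Nuclei were counted by Hoechst imaging 96 h after glucose withdrawal.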
row,Structure (SMILES),rescue of cell number
1,"COC(=O)c1ccc([C@H]2c3[nH]c4ccccc4c3C[C@H](C(=O)OC)N2C(=O)CCl)cc1 [1S,3R-RSL3]",35.2%
2,CCOc1ccccc1-n1c(C(C)N2CCN(C(=O)COc3ccc(Cl)cc3)CC2)nc2ccccc2c1=O (configuration not stated) [Erastin],68.6%
3,CC1=C(CC(=O)O)c2cc(F)ccc2/C1=C\c1ccc([S+](C)[O-])cc1 (configuration not stated) [Sulindac],-22.1%
4,O=C(O)CC[N+](=O)[O-] [3_Nitropropionic_acid],-31.7%
5,CN(C/C=C/C#CC(C)(C)C)Cc1cccc2ccccc12 [Terbinafine_HCl],-15.4%
6,CC(C)(O)CNc1nc(Nc2ccnc(C(F)(F)F)c2)nc(-c2cccc(C(F)(F)F)n2)n1 [AG-221],26.9%
7,CC(C)(C)c1ccc(S(=O)(=O)NCc2ccc(C(=O)Nc3cccnc3)cc2)cc1 [STF_31],26.1%
8,CCOC(=O)c1sc(NC(=O)c2ccco2)c(SC#N)c1C [CBR 5884],88%
9,O=C(O)c1nn(Cc2ccc(Cl)cc2Cl)c2ccccc12 [Lonidamine],-29%
10,Cc1nc(-c2ccc(OCC(C)C)c(C#N)c2)sc1C(=O)O [Febuxostat],73.9%
11,COc1cccc2c(NCc3ccccc3)nc(-n3c(N)nc4ccccc43)nc12 [ML_240],50.1%
12,CC(C)=CCC1=C(O)C(=O)c2ccccc2C1=O [Lapachol],57.7%
13,CC[C@]1(O)C[C@H]2CN(CCc3c([nH]c4ccccc34)[C@@](C(=O)OC)(c3cc4c(cc3OC)N(C=O)[C@H]3[C@@](O)(C(=O)OC)[C@H](OC(C)=O)[C@]5(CC)C=CCN6CC[C@]43[C@@H]65)C2)C1 [Vincristine_sulfate],29.6%
14,CN(C)CC[C@H](CSc1ccccc1)Nc1ccc(S(=O)(=O)NC(=O)c2ccc(N3CCN(Cc4ccccc4-c4ccc(Cl)cc4)CC3)cc2)cc1[N+](=O)[O-] [ABT_737],-33.6%
15,c1cc(-c2cnn3cc(-c4ccc(OCCN5CCCCC5)cc4)cnc23)ccn1 [Dorsomorphin],66.2%
16,CCOC(=O)[C@@H](N)CCC(=O)N[C@@H](CSCc1ccccc1)C(=O)N[C@@H](C(=O)OCC)c1ccccc1 [Telintra],16.7%
17,COc1cc(O)c2c(c1)C(=O)c1cc(C)cc(O)c1C2=O [Physcion],-37.6%
18,OCCN1C[C@H](O)[C@@H](O)[C@H](O)[C@H]1CO [Miglitol],-37.1%
19,CC(C)c1cc(C(C)C)c(CC(=O)NS(=O)(=O)Oc2c(C(C)C)cccc2C(C)C)c(C(C)C)c1 [Avasimibe],7.22%
20,CN(Cc1cnc2nc(N)nc(N)c2n1)c1ccc(C(=O)N[C@@H](CCC(=O)O)C(=O)O)cc1 [Methotrexate],-33.3%
21,CC1(C)CCC(c2ccc(Cl)cc2)=C(CN2CCN(c3ccc(C(=O)NS(=O)(=O)c4ccc(N[C@H](CCN5CCOCC5)CSc5ccccc5)c(S(=O)(=O)C(F)(F)F)c4)cc3)CC2)C1 [ABT_263],33.6%
22,Oc1ccc(/C=C/c2cc(O)cc(O)c2)cc1 [Resveratrol],-35.9%
23,OC[C@H]1O[C@H]([S-])[C@H](O)[C@@H](O)[C@@H]1O.[Au+] [Aurothioglucose],-13.7%
24,COc1cc(/C=C/C(=O)N2CCC=CC2=O)cc(OC)c1OC [Piperlongumine],36.8%
25,COP(=O)(CCC(N)C(=O)O)Oc1cccc(CC(=O)O)c1 (configuration not stated) [GGsTop],-24%
26,O[C@H]1[C@H](O)[C@@H](O)CN2CC[C@H](O)[C@H]12 [Castanospermine],-30.6%
27,CCOc1ccc(Cc2cc([C@@H]3O[C@H](CO)[C@@H](O)[C@H](O)[C@H]3O)ccc2Cl)cc1 [Dapagliflozin],-33.4%
